Test results taken from patent publication US6638973B2, “Taxane formulations” (FSU Research Foundation, Inc., priority 2000, dated 2003).
Read-outs that look alike come from different tables or passages of the source.

Tested on: HCT116 cells
Experiment: In vitro cytotoxicity measured by the cell colony formation assay
Assay type: cell-based
Settings: colonies counted after 7 days, read-out: IN VITRO ID 50 (nm) HCT116
How it was run: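 Colony-forming survival was scored 7 days after a 72 h, 37 °C compound exposure followed by washout into fresh medium.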

[1] = HCT116 colony formation, 72 h drug incubation, Example 10, C-10 ester/C-7 hydroxy taxanes
[2] = HCT116 cells, 72 h drug incubation, ID50 = drug concentration producing 50% inhibition of colony formation
[3] = HCT116 cells, 72 h incubation with drug, ID50 = drug concentration producing 50% inhibition of colony formation
[4] = HCT116 colony formation, 72 h drug incubation, Example 5, C-7 ester/C-10 hydroxy taxanes

| SMILES | IC50 [1] [nM] | also measured |
| --- | --- | --- |
| CCCC(=O)N[C@@H](c1cccs1)[C@@H](O)C(=O)O[C@H]1C[C@@]2(O)[C@@H](OC(=O)c3ccccc3)C3[C@](C)(C(=O)[C@H](OC(=O)C4CC4)C(=C1C)C2(C)C)[C@@H](O)C[C@H]1OC[C@@]31OC(C)=O (some centres unmarked) [Compound 3132] | < 1 |  |
| CCCC(=O)N[C@@H](c1ccco1)[C@@H](O)C(=O)O[C@H]1C[C@@]2(O)[C@@H](OC(=O)c3ccccc3)C3[C@](C)(C(=O)[C@H](OC(=O)CC)C(=C1C)C2(C)C)[C@@H](O)C[C@H]1OC[C@@]31OC(C)=O (some centres unmarked) [Compound 3219] | < 1 |  |
| CCC(=O)O[C@H]1C(=O)[C@@]2(C)C([C@H](OC(=O)c3ccccc3)[C@]3(O)C[C@H](OC(=O)[C@H](O)[C@@H](NC(=O)c4ccccc4)C4CC4)C(C)=C1C3(C)C)[C@]1(OC(C)=O)CO[C@@H]1C[C@@H]2O (some centres unmarked) [Compound 0706] | < 1 |  |
| C/C=C/C(=O)N[C@@H](c1ccco1)[C@@H](O)C(=O)O[C@H]1C[C@@]2(O)[C@@H](OC(=O)c3ccccc3)C3[C@](C)(C(=O)[C@H](O)C(=C1C)C2(C)C)[C@@H](OC(=O)NCC)C[C@H]1OC[C@@]31OC(C)=O (some centres unmarked) [Compound 5822] |  | IC50 [2]: < 10 nM |
| CCOC(=O)O[C@H]1C(=O)[C@@]2(C)C([C@H](OC(=O)c3ccccc3)[C@]3(O)C[C@H](OC(=O)[C@H](O)[C@@H](NC(=O)c4cccs4)c4ccco4)C(C)=C1C3(C)C)[C@]1(OC(C)=O)CO[C@@H]1C[C@@H]2O (some centres unmarked) [Compound 4088] |  | IC50 [3]: < 10 nM |
| C/C=C/C(=O)O[C@H]1C(=O)[C@@]2(C)C([C@H](OC(=O)c3ccccc3)[C@]3(O)C[C@H](OC(=O)[C@H](O)[C@@H](NC(=O)OC(C)(C)C)c4ccccn4)C(C)=C1C3(C)C)[C@]1(OC(C)=O)CO[C@@H]1C[C@@H]2O (some centres unmarked) [Compound 2348] | < 1 |  |
| CCNC(=O)O[C@H]1C(=O)[C@@]2(C)C([C@H](OC(=O)c3ccccc3)[C@]3(O)C[C@H](OC(=O)[C@H](O)[C@@H](NC(=O)OC(C)(C)C)c4ccco4)C(C)=C1C3(C)C)[C@]1(OC(C)=O)CO[C@@H]1C[C@@H]2O (some centres unmarked) [Compound 2700] |  | IC50 (HCT116 cells, colony formation, 72 h incubation with drug, ID50 = drug concentration producing 50% inhibition of colony formation): < 1 nM |
| CC(=O)O[C@@]12CO[C@@H]1C[C@H](O)[C@@]1(C)C(=O)[C@H](OC(=O)C=C(C)C)C3=C(C)[C@@H](OC(=O)[C@H](O)[C@@H](NC(=O)OC(C)(C)C)c4ccoc4)C[C@@](O)([C@@H](OC(=O)c4ccccc4)C12)C3(C)C (some centres unmarked) [Compound 2499] | < 1 |  |
| CCC(=O)O[C@H]1C(=O)[C@@]2(C)C([C@H](OC(=O)c3ccccc3)[C@]3(O)C[C@H](OC(=O)[C@H](O)[C@@H](NC(=O)c4ccco4)c4ccco4)C(C)=C1C3(C)C)[C@]1(OC(C)=O)CO[C@@H]1C[C@@H]2O (some centres unmarked) [Compound 3818] | < 1 |  |
| CC(=O)O[C@@]12CO[C@@H]1C[C@H](OC(=O)Nc1ccc(F)c(F)c1)[C@@]1(C)C(=O)[C@H](O)C3=C(C)[C@@H](OC(=O)[C@H](O)[C@@H](NC(=O)C=C(C)C)c4ccco4)C[C@@](O)([C@@H](OC(=O)c4ccccc4)C12)C3(C)C (some centres unmarked) [Compound 5522] |  | IC50 [2]: < 1 nM |
| CCC(C)(C)OC(=O)N[C@@H](c1ccco1)[C@@H](O)C(=O)O[C@H]1C[C@@]2(O)[C@@H](OC(=O)c3ccccc3)C3[C@](C)(C(=O)[C@H](OC(=O)COC(C)=O)C(=C1C)C2(C)C)[C@@H](O)C[C@H]1OC[C@@]31OC(C)=O (some centres unmarked) [Compound 6577] |  | IC50 (HCT116 colony formation, 72 h drug incubation, Example 20, C-10 substituted acetate/C-7 hydroxy taxanes): < 1 nM |
| CC(=O)O[C@@]12CO[C@@H]1C[C@H](O)[C@@]1(C)C(=O)[C@H](OC(=O)C3CC3)C3=C(C)[C@@H](OC(=O)[C@H](O)[C@@H](NC(=O)OCC(C)C)c4cccs4)C[C@@](O)([C@@H](OC(=O)c4ccccc4)C12)C3(C)C (some centres unmarked) [Compound 3129] | < 10 |  |
| CCC(=O)O[C@H]1C[C@H]2OC[C@@]2(OC(C)=O)C2[C@H](OC(=O)c3ccccc3)[C@]3(O)C[C@H](OC(=O)[C@H](O)[C@H](C=C(C)C)NC(=O)OCC(C)C)C(C)=C([C@@H](O)C(=O)[C@@]21C)C3(C)C (some centres unmarked) [Compound 5121] |  | IC50 [4]: 21.1 nM |
| CCCC(=O)O[C@H]1C[C@H]2OC[C@@]2(OC(C)=O)C2[C@H](OC(=O)c3ccccc3)[C@]3(O)C[C@H](OC(=O)[C@H](O)[C@@H](NC(=O)OCC(C)C)c4cccs4)C(C)=C([C@@H](O)C(=O)[C@@]21C)C3(C)C (some centres unmarked) [Compound 4290] |  | IC50 [4]: < 10 nM |
| CC(=O)OC12COC1CC(O)C1(C)C(=O)C(OC(=O)c3cccs3)C3=C(C)C(OC(=O)C(O)C(NC(=O)OC(C)(C)C)c4ccco4)CC(O)(C(OC(=O)c4ccccc4)C21)C3(C)C (centres unmarked) [Compound 1892] | < 1 |  |
| CC(=O)O[C@@]12CO[C@@H]1C[C@H](O)[C@@]1(C)C(=O)[C@H](OC(=O)C(C)C)C3=C(C)[C@@H](OC(=O)[C@H](O)[C@@H](NC(=O)OC(C)(C)C)C(C)C)C[C@@](O)([C@@H](OC(=O)c4ccccc4)C12)C3(C)C (some centres unmarked) [Compound 2306] | < 10 |  |

| SMILES | IC50 [1] [nM] | also measured |
| --- | --- | --- |
| CCOC(=O)O[C@H]1C(=O)[C@@]2(C)C([C@H](OC(=O)c3ccccc3)[C@]3(O)C[C@H](OC(=O)[C@H](O)[C@@H](NC(=O)OC(C)(C)C)c4ccoc4)C(C)=C1C3(C)C)[C@]1(OC(C)=O)CO[C@@H]1C[C@@H]2O (some centres unmarked) [Compound 1838] |  | IC50 [3]: < 1 nM |
| CCNC(=O)O[C@H]1C[C@H]2OC[C@@]2(OC(C)=O)C2[C@H](OC(=O)c3ccccc3)[C@]3(O)C[C@H](OC(=O)[C@H](O)[C@@H](NC(=O)OC(C)(C)C)c4ccco4)C(C)=C([C@@H](O)C(=O)[C@@]21C)C3(C)C (some centres unmarked) [Compound 5393] |  | IC50 [2]: < 1 nM |
| CCOC(=O)O[C@H]1C[C@H]2OC[C@@]2(OC(C)=O)C2[C@H](OC(=O)c3ccccc3)[C@]3(O)C[C@H](OC(=O)[C@H](O)[C@@H](NC(=O)OC(C)C)c4cccs4)C(C)=C([C@@H](O)C(=O)[C@@]21C)C3(C)C (some centres unmarked) [Compound 4151] |  | IC50 [3]: < 1 nM |
| CCCC(=O)O[C@H]1C(=O)[C@@]2(C)C([C@H](OC(=O)c3ccccc3)[C@]3(O)C[C@H](OC(=O)[C@H](O)[C@@H](NC(=O)c4ccco4)c4cccs4)C(C)=C1C3(C)C)[C@]1(OC(C)=O)CO[C@@H]1C[C@@H]2O (some centres unmarked) [Compound 3352] | < 1 |  |
| C/C=C/C(=O)N[C@@H](c1ccco1)[C@@H](O)C(=O)O[C@H]1C[C@@]2(O)[C@@H](OC(=O)c3ccccc3)C3[C@](C)(C(=O)[C@H](OC(=O)CCC)C(=C1C)C2(C)C)[C@@H](O)C[C@H]1OC[C@@]31OC(C)=O (some centres unmarked) [Compound 3994] | < 1 |  |
| CCC(=O)O[C@H]1C(=O)[C@@]2(C)C([C@H](OC(=O)c3ccccc3)[C@]3(O)C[C@H](OC(=O)[C@H](O)[C@@H](NC(=O)c4cccnc4)c4cccs4)C(C)=C1C3(C)C)[C@]1(OC(C)=O)CO[C@@H]1C[C@@H]2O (some centres unmarked) [Compound 4121] | < 10 |  |
| CC(=O)O[C@@]12CO[C@@H]1C[C@H](O)[C@@]1(C)C(=O)[C@H](OC(=O)C3CC3)C3=C(C)[C@@H](OC(=O)[C@H](O)[C@@H](NC(=O)OCC(C)C)c4ccsc4)C[C@@](O)([C@@H](OC(=O)c4ccccc4)C12)C3(C)C (some centres unmarked) [Compound 5011] | < 10 |  |
| CCC(=O)O[C@H]1C(=O)[C@@]2(C)C([C@H](OC(=O)c3ccccc3)[C@]3(O)C[C@H](OC(=O)[C@H](O)[C@@H](NC(=O)c4ccccc4)c4cccnc4)C(C)=C1C3(C)C)[C@]1(OC(C)=O)CO[C@@H]1C[C@@H]2O (some centres unmarked) [Compound 0647] | 12 |  |
| CCOC(=O)O[C@H]1C(=O)[C@@]2(C)C([C@H](OC(=O)c3ccccc3)[C@]3(O)C[C@H](OC(=O)[C@H](O)[C@@H](NC(=O)OC(C)(C)C)c4ccccn4)C(C)=C1C3(C)C)[C@]1(OC(C)=O)CO[C@@H]1C[C@@H]2O (some centres unmarked) [Compound 1799] |  | IC50 [3]: < 1 nM |
| CCCC(=O)O[C@H]1C[C@H]2OC[C@@]2(OC(C)=O)C2[C@H](OC(=O)c3ccccc3)[C@]3(O)C[C@H](OC(=O)[C@H](O)[C@@H](NC(=O)OC(C)(C)C)c4ccsc4)C(C)=C([C@@H](O)C(=O)[C@@]21C)C3(C)C (some centres unmarked) [Compound 4446] |  | IC50 [4]: < 1 nM |
| CCOC(=O)O[C@H]1C(=O)[C@@]2(C)C([C@H](OC(=O)c3ccccc3)[C@]3(O)C[C@H](OC(=O)[C@H](O)[C@@H](NC(=O)OC(C)C)c4cccs4)C(C)=C1C3(C)C)[C@]1(OC(C)=O)CO[C@@H]1C[C@@H]2O (some centres unmarked) [Compound 2999] |  | IC50 [3]: < 1 nM |
| CC(=O)OC12COC1CC(O)C1(C)C(=O)C(OC(=O)c3ccco3)C3=C(C)C(OC(=O)C(O)C(NC(=O)OC(C)(C)C)c4ccco4)CC(O)(C(OC(=O)c4ccccc4)C21)C3(C)C (centres unmarked) [Compound 2142] | < 1 |  |
| C/C=C/C(=O)N[C@@H](c1ccco1)[C@@H](O)C(=O)O[C@H]1C[C@@]2(O)[C@@H](OC(=O)c3ccccc3)C3[C@](C)(C(=O)[C@H](O)C(=C1C)C2(C)C)[C@@H](OC(=O)COC)C[C@H]1OC[C@@]31OC(C)=O (some centres unmarked) [Compound 5835] |  | IC50 (HCT116 colony formation, 72 h drug incubation, Example 15, C-7 substituted acetate/C-10 hydroxy taxanes): < 1 nM |
| CCCC(=O)O[C@H]1C(=O)[C@@]2(C)C([C@H](OC(=O)c3ccccc3)[C@]3(O)C[C@H](OC(=O)[C@H](O)[C@@H](NC(=O)c4cccs4)c4cccs4)C(C)=C1C3(C)C)[C@]1(OC(C)=O)CO[C@@H]1C[C@@H]2O (some centres unmarked) [Compound 3408] | < 1 |  |
| COC(=O)O[C@H]1C[C@H]2OC[C@@]2(OC(C)=O)C2[C@H](OC(=O)c3ccccc3)[C@]3(O)C[C@H](OC(=O)[C@H](O)[C@@H](NC(=O)OC(C)(C)C)c4ccsc4)C(C)=C([C@@H](O)C(=O)[C@@]21C)C3(C)C (some centres unmarked) [Compound 4444] |  | IC50 [3]: < 1 nM |
| C/C=C/C(=O)N[C@@H](c1cccs1)[C@@H](O)C(=O)O[C@H]1C[C@@]2(O)[C@@H](OC(=O)c3ccccc3)C3[C@](C)(C(=O)[C@H](OC(=O)CCC)C(=C1C)C2(C)C)[C@@H](O)C[C@H]1OC[C@@]31OC(C)=O (some centres unmarked) [Compound 3595] | < 1 |  |
